IC50 and EC50 data for six compounds are collected here from patent publication US20240228457A1, “AKT3 MODULATORS” (Georgiamune Inc., priority 2020, published 2024).

For assay [1], the target named is T1, Akt3 (Homo sapiens, UniProt Q9Y243).
T1 construct: endogenous in cells; host or cells: human CD4+/CD45RA+/CD25- naive T cells under iTreg induction conditions
The experiment in a line: Akt3 inhibition activity of selected compounds. The assay is classed as cell-based.

Assay [2] has as its target T1, Akt3. The experiment in a line: Akt3 activation activity of selected compounds. The assay is classed as cell-based.

T1 sequence (Q9Y243 whole entry): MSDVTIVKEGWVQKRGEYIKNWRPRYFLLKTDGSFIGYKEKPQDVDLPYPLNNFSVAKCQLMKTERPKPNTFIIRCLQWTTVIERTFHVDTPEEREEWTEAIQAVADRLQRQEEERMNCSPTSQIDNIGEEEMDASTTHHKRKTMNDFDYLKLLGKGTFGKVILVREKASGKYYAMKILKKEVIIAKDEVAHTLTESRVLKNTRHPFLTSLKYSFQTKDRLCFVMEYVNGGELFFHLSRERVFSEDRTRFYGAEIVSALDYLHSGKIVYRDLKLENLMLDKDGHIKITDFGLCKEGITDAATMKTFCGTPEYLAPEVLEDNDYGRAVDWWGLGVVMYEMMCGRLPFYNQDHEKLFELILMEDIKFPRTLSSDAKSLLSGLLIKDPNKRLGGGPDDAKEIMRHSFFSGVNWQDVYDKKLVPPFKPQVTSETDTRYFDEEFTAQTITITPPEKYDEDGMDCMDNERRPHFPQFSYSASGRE

What is called IC50 is the concentration at which inhibition is half-maximal. Compound `Nc1cc(Nc2ccc(C(=O)Nc3cccc(Nc4ccncc4)c3)cc2)ccn1` [Compound 19, 4-(2-aminopyridin-4-ylamino)-N-(3-(pyridin-4-ylamino)phenyl)benzamide] registered an IC50 against Akt3 [1] below 5 µM. Still for that read-out and setting: in the case of `Cc1c(Nc2ccc(C(=O)Nc3cccc(Nc4ccncc4)c3)cc2)ccnc1N` [Compound 21, 4-(2-amino-3-methylpyridin-4-ylamino)-N-(3-(pyridin-4-ylamino)phenyl)benzamide] it was below 2 µM. For orientation: EC50 means the concentration giving half of the maximal effect. Lower therefore signals greater potency. In turn, `N#Cc1ccc2nccc(Nc3cccc(C(=O)Nc4ccc(Nc5ccncc5)cc4)c3)c2c1` [Compound 2, 3-((6-cyanoquinolin-4-yl)amino)-N-(4-(pyridin-4-ylamino)phenyl)benzamide] yielded an EC50 at Akt3 [2] below 5 µM. On Akt3 [1], `O=C(Nc1ccc(Nc2ccncc2)cc1)c1cccc(Nc2ccnc3ccc(F)cc23)c1` [Compound 3, 3-((6-fluoroquinolin-4-yl)amino)-N-(4-(pyridin-4-ylamino)phenyl)benzamide] had an IC50 below 2 µM.

In the case of `Cc1cccc2nccc(Nc3cccc(C(=O)Nc4ccc(Nc5ccncc5)cc4)c3)c12` [Compound 18, 3-((5-methylquinolin-4-yl)amino)-N-(4-(pyridin-4-ylamino)phenyl)benzamide], on Akt3 [1], the IC50 was below 2 µM. Same read-out and setting: in the case of `Cc1cc(Nc2ccc(C(=O)Nc3cccc(Nc4ccncc4)c3)cc2)cc(N)n1` [Compound 20, 4-(2-amino-6-methylpyridin-4-ylamino)-N-(3-(pyridin-4-ylamino)phenyl)benzamide] it was below 5 µM.
